According to US6852710B2, “2-alkoxyestradiol analogs with antiproliferative and antimitotic activity” (Southwest Foundation for Biomedical Research, priority 2001, dated 2005):

Legend:
NCI/ADR cells = test: SRB assay, inhibition of proliferation, multidrug resistant line; format: cell-based, human; conditions: for IC50: Homo sapiens, NCI/ADR-RES, NCI/ADR multidrug resistant, 48 hours, n=3 mean±SD; for NCI-ADR/MDA-MB-435 resistance factor: IC50 in NCI/ADR divided by IC50 in MDA-MB-435
Excerpt: The SK-OV-3 cell line was derived from ovarian carcinoma, the MDA-MB-435 and NCI/ADR from breast adenocarcinoma, PC3 and DU 145 from prostate carcinoma and HeLa from cervical carcinoma. The SK-OV-3, HeLa, PC3, and DU 145 and cell lines were obtained from the American Type Culture Collection, 10801 University Blvd., Manassas, Va. 20110-2209. The MDA-MB-435 cell line was obtained from the Lombardi Cancer Center of Georgetown University School of Medicine and the NCI/ADR cell line was obtained from the National Cancer Institute, Fairview Center, Suite 204, 1003 West 7th Street, Frederick, Md. 21701-8531.
(§1) Cells were plated into 96 well plates and allowed to grow and attach for 18-24 hours and then the drugs or vehicle controls were added to the wells. Each data point represents the mean of three experiments, each of which consisted of three replicates within an experiment. The cells were incubated with the drugs for 48 hours and then the cellular protein was fixed and quantified using the sulforhodamine B (SRB) assay. The absorbance of the dye is linear with respect to both cell protein and cell number (Skehan, P.; Storeng, R.; Scudiero, D., Monks; A., McMahon, J.; Vistica, D., Warren, J. T.; Bokesch, H., Kenney, S.; and Boyd, M. R., “New colorimetric cytotoxicity assay for anticancer-drug screening”, J. Natl. Cancer Inst, 82, 1107-1112 (1990)). The effects of the drugs were compared to vehicle controls and the data plotted as percent of control vs. log of drug concentration.
(§2) The IC50 is defined as the drug concentration required to inhibit cell proliferation 50% and is calculated from the linear portion of the log concentration response curve.
(§3) The IC50 values for inhibition of proliferation were calculated from the log dose response curve (n=3, mean±SD).
The effects of the analogs on a multi-drug resistant cell line were also studied. The NCI/ADR cell line is resistant to many chemotherapeutic agents by virtue of its high expression of the drug efflux pump P-glycoprotein. The NCI/ADR cell line was obtained from the National Cancer Institute, Fairview Center, Suite 204, 1003 West 7th Street, Frederick, Md. 21701-8531.
The IC50 values for inhibition of proliferation were calculated from the dose-response curves. The values represent the mean of 3 experiments ±SD. Resistance factors were calculated by dividing the IC50 of the resistant cell line, NCI/ADR, by the IC50 in a drug sensitive cell line, MDA-MB-435.

MDA-MB-435 cells = test: SRB assay, inhibition of proliferation; format: cell-based, human; conditions: for IC50: Homo sapiens, MDA-MB-435, 48 hours, n=3 mean±SD
Protocol: (§4) The 4 analogs of 2-ME2 set forth in Table 1 were tested for antiproliferative activity against 6 human tumor cell lines. The SK-OV-3 cell line was derived from ovarian carcinoma, the MDA-MB-435 and NCI/ADR from breast adenocarcinoma, PC3 and DU 145 from prostate carcinoma and HeLa from cervical carcinoma. The SK-OV-3, HeLa, PC3, and DU 145 and cell lines were obtained from the American Type Culture Collection, 10801 University Blvd., Manassas, Va. 20110-2209. The MDA-MB-435 cell line was obtained from the Lombardi Cancer Center of Georgetown University School of Medicine and the NCI/ADR cell line was obtained from the National Cancer Institute, Fairview Center, Suite 204, 1003 West 7th Street, Frederick, Md. 21701-8531.
as §1, §2, §3

PC3 cells = test: SRB assay, inhibition of proliferation; format: cell-based; conditions: Homo sapiens, PC-3; PC3, 48 hours, n=3 mean±SD
Protocol: as §4, §1, §2, §3

SK-OV-3 cells = test: SRB assay, inhibition of proliferation; format: cell-based; conditions: Homo sapiens; SK-OV-3, 48 hours, n=3 mean±SD
Protocol: as §4, §1, §2, §3

HeLa cells = test: SRB assay, inhibition of proliferation; format: cell-based; conditions: Homo sapiens, 48 hours, n=3 mean±SD
Protocol: as §4, §1, §2, §3

6 human tumor cell lines = test: SRB antiproliferative assay, panel of tumor cell lines; format: cell-based; conditions: for potency compared with 2-ME2, tumor cell lines: in words, 15-dehydro-2-ME2: MDA-MB-435, NCI/ADR, PC3, HeLa and SK-OV-3
Protocol: as §4, §1, §2

[1] = tested on: Human Umbilical Vein Endothelial Cells (HUVEC); test: HUVEC proliferation (SRB assay); format: cell-based; conditions: for potency relative to 2-ME2, HUVEC proliferation: in words; for IC50: Homo sapiens, HUVEC, SRB assay
Excerpt: FIG. 2 illustrates the effects of compounds on Human Umbilical Vein Endothelial Cells (HUVEC) proliferation. The SRB assay was used to construct the dose response curves of the agents in HUVEC cells. n=3±SD;
Two in vitro assays were used to detect the potential for antiangiogenic activity of the analogs. One assay tested the ability of the analogs to inhibit the cellular proliferation of endothelial cells as shown below (Table 4). The ability of the analogs to inhibit the proliferation of endothelial cells was tested and compared to the effects of 2-ME2. Drugs that have antiangiogenic activity inhibit the proliferation of endothelial cells.

[2] = tested on: Human Umbilical Vein Endothelial Cells (HUVEC); test: HUVEC invasion, Matrigel invasion chambers; format: cell-based; conditions: for IC50: Homo sapiens, HUVEC, Matrigel, 24 hours
Excerpt: FIG. 3 illustrates the effects of compounds on Human Umbilical Vein Endothelial Cells (HUVEC) cell invasion. Becton-Dickinson (BD) Biocoat® Matrigel® invasion chambers were used to construct dose response curves of the compounds for invasion of HUVECs. n=3±SD;
A second assay was also used to evaluate the analogs for potential antiangiogenic activity. The complex process of endothelial cell invasion and migration are key events during angiogenesis. The ability of compounds to inhibit the invasion and migration of endothelial cells through a biological membrane matrix was evaluated. Specifically, the ability of the 2-ME2 analogs, 15-dehydro-2-ME2, 14-dehydro-2-ME2 and 2-ME2-15α,16α to inhibit the invasion and migration of human umbilical vein endothelial cells (HUVEC) through Matrigel® basement membrane material and a PET membrane with 8 μm pores was evaluated. HUVECs were obtained from BioWhittaker and were used during passages of 2 to 6. BD Biocoat® Matrigel® invasion chambers were used for the assays. These modified Boyden chambers have a PET membrane with 8 μm pores that have been coated with Matrigel®. The membrane separates the upper chamber from the lower chamber. HUVECs were plated into the top chamber in media containing 0.1% bovine serum albumin with either a test compound or vehicle and allowed to invade and migrate through pores for 24 hours. The media in the lower chamber contained the chemoattractant, 10% fetal bovine, serum. Following the incubation period the cells on the top of the membrane were removed with a cotton swab and the cells that had migrated through the pores to the lower surface of the membrane were stained with hematoxylin and eosin and counted microscopically. Experiments were conducted in duplicate and the numbers of cells that migrated were counted in 10 microscope fields per transwell chamber. The data are expressed as percent of vehicle control invasion. Dose response curves were generated and are shown in FIG. 3 and the IC50s for inhibition of HUVEC invasion were determined and are presented above in Table 4. All of the 2-ME2 analogs inhibited HUVEC invasion.

DU 145 cells = test: SRB assay, inhibition of proliferation; format: cell-based, human; conditions: for potency relative to 2-ME2: DU 145 cell line; for IC50: Homo sapiens, DU 145, 48 hours, n=3 mean±SD
Protocol: as §4, §1, §2, §3

[3] = tested on: MDA-MB-435 breast cancer xenograft; test: MDA-MB-435 breast cancer xenograft model; format: in vivo, mice; conditions: for tumor growth delay: intraperitoneally daily for 30 days, time for median to reach tumor burden of 1500 mg vs control; for antitumor effect compared with 2-ME2: tumor burden versus time
Protocol: FIG. 4 illustrates the effects of compounds in an MDA-MB-435 breast cancer xenograft model. The data are the means of the groups ±SEM. Statistical significance (P<0.05) is indicated by an asterisk;
The analogs were tested for antitumor activity using an MDA-MB-435 breast cancer xenograft model. Tumor fragments of MDA-MB-435 (30 mg) were implanted subcutaneously into female athymic NCr-nu mice (SWF-1) weighing approximately 24 g. The tumor fragments were harvested from nude mice hosts. Animal weight and tumor dimensions were measured twice weekly with calipers and tumor weights estimated using 2-dimensional measurements of length and width and the formula [1×(w)^2]/2. When the tumors reached an approximate size equivalent to 175 mg (13 days after implantation) the mice were randomized to treatment or control groups and treatments were begun. The compounds were administered intraperitoneally daily for 30 days on the basis of individual animal body weights. Treatment groups contained 10 mice and the vehicle treated control group consisted of 20 mice. The mean tumor burdens were plotted for each treatment group and compared to controls. The means of the tumor burden data were analyzed for differences using a one-sided Student's t-test, with a P<0.05 considered to be significant difference. Tumor growth delay, the difference between the time for the median of each group (treatment and control) to reach a tumor burden of 1500 mg was calculated.

SMILES	IC50 (NCI/ADR cells)	NCI-ADR/MDA-MB-435 resistance factor (NCI/ADR cells)	IC50 (MDA-MB-435 cells)	IC50 (PC3 cells)	IC50 (SK-OV-3 cells)	IC50 (HeLa cells)	potency compared with 2-ME2, tumor cell lines (6 human tumor cell lines)	potency relative to 2-ME2, HUVEC proliferation [1]	IC50 [1]	potency relative to 2-ME2 in inhibiting HUVEC invasion [2]	IC50 [2]	potency relative to 2-ME2 (DU 145 cells)	IC50 (DU 145 cells)	tumor growth delay [3]	days with statistically significant differences between control and treated tumors ([3]; one-sided Student's t-test, P<0.05)	antitumor effect compared with 2-ME2 [3]	potency relative to 2-ME2 (6 human tumor cell lines; 5 of the 6 cell lines tested)	NCI-ADR/MDA-MB-435 resistance factor (NCI/ADR cells; listed as vinblastine)	potency compared with 2-ME2 (MDA-MB-435 cells; MDA-MB-435 cell line, in words)
CC(=O)O[C@H]1C(=O)[C@@]2(C)[C@H]([C@H](OC(=O)c3ccccc3)[C@]3(O)C[C@H](OC(=O)[C@H](O)[C@@H](NC(=O)c4ccccc4)c4ccccc4)C(C)=C1C3(C)C)[C@]1(OC(C)=O)CO[C@@H]1C[C@@H]2O [Taxol ®, reference compound]	4460 ± 610 nM	2218.91	2.01 ± 0.3 nM	–	–	–	–	–	–	–	–	–	–	–	–	–	–	–	–
COc1cc2c(cc1O)CC[C@@H]1[C@@H]2CC[C@]2(C)[C@@H](O)C=C[C@@H]12 [15-dehydro-2-ME2, 2-Methoxyestra-1,3,5(10), 15-tetraen-3,17β-diol]	490 ± 60 nM	0.57	860 ± 110 nM	1820 ± 980 nM	1370 ± 260 nM	430 ± 80 nM	approximately equal in potency to 2-ME2	equipotent with the parental compound	720 ± 20 nM	equipotent with 2-ME2	2070 ± 80 nM	over three times more potent	1250 ± 320 nM	7.5 days	days 16-26 and day 36	superior to 2-ME2	–	–	–
COc1cc2c(cc1O)CCC1C2CC[C@@]2(C)C1CC[C@@H]2O (stereo partly drawn) [2-ME2, 2-Methoxyestradiol, reference compound]	380 ± 10 nM	0.28	1380 ± 100 nM	2220 ± 150 nM	1790 ± 240 nM	450 ± 40 nM	–	–	700 ± 110 nM	–	1990 ± 390 nM	–	4260 ± 950 nM	–	–	–	–	–	–
COc1cc2c(cc1O)CCC1C2CC[C@@]2(C)C1[C@H]1OC(C)(C)O[C@H]1[C@@H]2O (stereo partly drawn) [2-ME2-15α, 16α, 2-Methoxy-3,15α,16α,17β-tetrahydroxyestra-1,3,5(10)-triene 15,16-acetonide]	4210 ± 600 nM	1.30	3240 ± 350 nM	5130 ± 1530 nM	5160 ± 990 nM	2980 ± 240 nM	generally less potent than 2-ME2	less potent	11900 ± 2170 nM	less potent	16000 ± 1980 nM	–	6780 ± 620 nM	11.3 days	–	superior to 2-ME2	–	–	–
COc1cc2c(cc1O)CC[C@H]1C3=CC[C@H](O)[C@@]3(C)CC[C@H]21 [14-dehydro-2-ME2, 2-Methoxyestra-1,3,5(10), 14-tetraen-3,17β-diol]	56 ± 10 nM	1.0	56 ± 2 nM	350 ± 90 nM	150 ± 70 nM	50 ± 20 nM	–	more potent than 2-ME2	49 nM	more than 6 times	300 ± 20 nM	2.7 fold	1580 ± 810 nM	10.0 days	–	superior to 2-ME2	6-24 fold	–	–
CC[C@]1(O)C[C@@H]2CN(CCc3c([nH]c4ccccc34)[C@@](C(=O)OC)(c3cc4c(cc3OC)N(C)[C@H]3[C@@](O)(C(=O)OC)[C@H](OC(C)=O)[C@]5(CC)C=CCN6CC[C@]43[C@@H]65)C2)C1 [Vinblastine, reference compound]	430 ± 70 nM	139.61	3.08 ± 0.09 nM	–	–	–	–	–	–	–	–	–	–	–	–	–	–	140	–
COc1cc2c(cc1O)CC=C1[C@@H]2CC[C@]2(C)[C@@H](O)CC[C@@H]12 [7-dehydro-2-ME2, 2-Methoxyestra-1,3,5(10), 7-tetraen-3,17β-diol]	2540 ± 440 nM	1.29	1970 ± 400 nM	–	4490 ± 180 nM	–	generally less potent than 2-ME2	less potent	4390 ± 370 nM	–	–	–	–	–	–	–	–	–	almost equipotent
